According to patent US7452688B2, “Transformed cell with enhanced sensitivity to antifungal compound and use thereof” (Sumitomo Chemical Company, Limited, priority 2002, dated 2008):

Key:
Type in all cases: cell-based, Saccharomyces cerevisiae
AH22 strain = test: Antifungal compound sensitivity test, control yeast AH22 strain (Example 13); details: 30° C. 24.5 hours, relative value in percentage
Protocol: The transformed budding yeast AH22-FoOS1 prepared in Example 12 was cultured while shaking at 30° C. for 18 hours in a Glu-Leu medium. As a control, the AH22 strain was similarly cultured while shaking at 30° C. for 18 hours in a Glu medium. The absorbance at 600 nm of each grown transformed budding yeast in a cell suspension was measured, and cell suspension diluted with sterilized distilled water to the absorbance of 0.1 was prepared. Further, a cell suspension in which the aforementioned cell suspension of the transformed budding yeast AH22-FoOS1 was diluted 50-fold with a Glu-Leu medium, and a cell suspension in which the aforementioned cell suspension of the AH22 strain was diluted 50-fold with a Glu medium were prepared.
A solution in which each of Compounds (1) to (3) was dissolved in dimethylsulfoxide (DMSO) to the concentration of 600 ppm, a solution in which each of Compounds (4) and (5) was dissolved in dimethylsulfoxide (DMSO) to the concentration of 2000 ppm, and a solution in which Compounds (6) and (7) was dissolved in dimethylsulfoxide (DMSO) to the concentration of 20 ppm were prepared, and two microplates were prepared in which each 1.0 μL per well of the Compound solution and DMSO as a control were dispensed. In one microplate among them, each. 100 μL of cell suspensions of the transformed budding yeast AH22-FoOS1 which had been prepared by dilution as described above was dispensed, and cultured by allowing to stand at 30° C. for 26.5 hours. In another microplate, each 100 μL of cell suspensions of the control yeast AH22 strain which had been prepared by dilution as described above was dispensed, and cultured by allowing to stand at 30° C. for 24.5 hours. After culturing, the absorbance at 600 nm of each well was measured with a microplate reader.
A degree of growth of the transformed budding yeast is expressed as a relative value in percentage, letting the absorbance at 600 nm at the concentration of the Compound of 0 ppm to be 100. It was confirmed that an inhibiting degree of growth of the transformed budding yeast TM182-FoOS1 by each test substance was grater than an inhibiting degree of growth of the transformed budding yeast AH22-FoOS1 by each test substance, and the transformed budding yeast TM182-FoOS1 was a transformed cell with the enhanced sensitivity to an antifungal compound as compared with the transformed budding yeast AH22-FoOS1.

[1] = system: transformed budding yeast TM182-HIK1; test: Antifungal compound sensitivity test of transformed budding yeast TM182-HIK1 (Example 9); details: 30° C. 27 hours; for Degree of growth of budding yeast (%) TM182-HIK1 Gal-Ura-Leu medium: control medium
Protocol: Similarly, the transformed budding yeast TM182-HIK1 prepared in Example 8 was cultured at 30° C. for 24 hours in a Glu-Ura-Leu medium. The absorbance at 600 nm of a cell suspension of the grown transformed budding yeast was measured, and a cell suspension diluted with each medium to the absorbance of 0.1 was prepared. Further, a cell suspension in which the aforementioned cell suspension of the transformed budding yeast TM182-HIK1 was diluted 50-fold with a Glu-Ura-Leu medium and, as a control, a cell suspension in which the suspension was diluted 50-fold with a […] prepared. A suspension in which each of Compounds (1) to (3) was dissolved in dimethylsulfoxide (DMSO) to the concentration of 200 ppm, a solution in which each of Compounds (4) and (5) was dissolved in dimethylsulfoxide (DMSO) to the concentration of 600 ppm, and a solution in which each of Compounds (6) and (7) was dissolved in dimethylsulfoxide (DMSO) to the concentration of 20 ppm were prepared, and two microplates were prepared in which each 1.0 μL per well of the Compound DMSO solution and DMSO as a control were dispensed into two wells. In one microplate among them, each 100 μL of cell suspensions of the transformed budding yeast TM182-HIK1 which had been prepared by dilution with a Glu-Ura-Leu medium as described above was dispensed, and cultured by allowing to stand at 30° C. for 27 hours. In another microplate; as described above, as a control, each 100 μL of cell suspensions of the transformed budding yeast TM182-HIK1 which had been prepared by dilution with a Gal-Ura-Leu medium was dispensed, and cultured by allowing to stand at 30° C. for 27 hours. After culturing, the absorbance at 600 nm of each well was measured with a microplate reader.
Degree of growths of both of the transformed budding yeasts cultured in the presence of Compounds (1) to (7) and budding yeast as a control therefor are shown in Table 3. Degrees of growths of both of the transformed budding yeasts and budding yeast as a control thereof or are shown by a relative value in percentage, letting the absorbance of 600 nm at the concentration of the Compound of 0 ppm to be […]. It was confirmed that an inhibiting degree of growth of TM182-HIK1 by each test substance was greater than an inhibiting degree of growth of AH22-HIK1 by each test substance, and the TM182-HIK1 was a transformed cell with the enhanced sensitivity to an antifungal-compound as compared with AH22-HIK1.

AH22 = test: Antifungal compound sensitivity test, control yeast AH22 (Example 6, Table 2); details: absorbance at 600 nm relative to 0 ppm = 100
Excerpt: Degrees of growths of both of the transformed budding yeasts cultured under the presence of Compounds (1) to (7) and budding yeast as a control therefor are shown in Table 2. Degrees of growths of both of the transformed budding yeasts and budding yeast as a control are expressed by a relative value in percentage, letting the absorbance at 600 nm at the concentration of the Compound of 0 ppm to be 100. It was confirmed that an inhibiting degree of growth of the transformed budding yeast TM182-BcOS1-I 365S by each test substance was grater than an inhibiting degree of growth of the transformed budding yeast AH22-BcOS1-I 365S by each test substance, and the transformed budding yeast TM182-BcOS1-I365S was a transformed cell with the enhanced sensitivity to an antifungal compound as compared with the transformed budding yeast AH22-BcOS1-I365S.

C=CC1(C)OC(=O)N(c2cc(Cl)cc(Cl)c2)C1=O (stereo not shown) [Compound (3), Vinclozolin]
Degree of growth of budding yeast AH22 Glu medium (AH22 strain; final concentration 6 ppm): 87% | Degree of growth of budding yeast (%) TM182-HIK1 Gal-Ura-Leu medium ([1]; final concentration 2.0 ppm): 100% | Degree of growth of budding yeast (%) TM182-HIK1 Glu-Ura-Leu medium ([1]; final concentration 2.0 ppm): 30% | Degree of growth of budding yeast (%) AH22 Glu medium (AH22; final concentration 6 ppm): 87%

N#Cc1c[nH]cc1-c1cccc2c1OC(F)(F)O2 [Compound (6), Fludioxonil]
Degree of growth of budding yeast AH22 Glu medium (AH22 strain; final concentration 0.2 ppm): 92% | Degree of growth of budding yeast (%) TM182-HIK1 Gal-Ura-Leu medium ([1]; final concentration 0.2 ppm): 104% | Degree of growth of budding yeast (%) TM182-HIK1 Glu-Ura-Leu medium ([1]; final concentration 0.2 ppm): 11% | Degree of growth of budding yeast (%) AH22 Glu medium (AH22; final concentration 0.2 ppm): 92%

O=[N+]([O-])c1c(Cl)c(Cl)c(Cl)c(Cl)c1Cl [Compound (4), Quintozene]
Degree of growth of budding yeast AH22 Glu medium (AH22 strain; final concentration 20 ppm): 96% | Degree of growth of budding yeast (%) TM182-HIK1 Gal-Ura-Leu medium ([1]; final concentration 6.0 ppm): 97% | Degree of growth of budding yeast (%) TM182-HIK1 Glu-Ura-Leu medium ([1]; final concentration 6.0 ppm): 63% | Degree of growth of budding yeast (%) AH22 Glu medium (AH22; final concentration 20 ppm): 96%

CC12CC1(C)C(=O)N(c1cc(Cl)cc(Cl)c1)C2=O (stereo not shown) [Compound (1), Procymidone]
Degree of growth of budding yeast AH22 Glu medium (AH22 strain; final concentration 6 ppm): 88% | Degree of growth of budding yeast (%) TM182-HIK1 Gal-Ura-Leu medium ([1]; final concentration 2.0 ppm): 100% | Degree of growth of budding yeast (%) TM182-HIK1 Glu-Ura-Leu medium ([1]; final concentration 2.0 ppm): 62% | Degree of growth of budding yeast (%) AH22 Glu medium (AH22; final concentration 6 ppm): 88%

COP(=S)(OC)Oc1c(Cl)cc(C)cc1Cl [Compound (5), Tolclofos-methyl]
Degree of growth of budding yeast AH22 Glu medium (AH22 strain; final concentration 20 ppm): 80% | Degree of growth of budding yeast (%) TM182-HIK1 Gal-Ura-Leu medium ([1]; final concentration 6.0 ppm): 106% | Degree of growth of budding yeast (%) TM182-HIK1 Glu-Ura-Leu medium ([1]; final concentration 6.0 ppm): 22% | Degree of growth of budding yeast (%) AH22 Glu medium (AH22; final concentration 20 ppm): 80%

N#Cc1c[nH]cc1-c1cccc(Cl)c1Cl [Compound (7), Fenpiclonil]
Degree of growth of budding yeast AH22 Glu medium (AH22 strain; final concentration 0.2 ppm): 91% | Degree of growth of budding yeast (%) TM182-HIK1 Gal-Ura-Leu medium ([1]; final concentration 0.2 ppm): 87% | Degree of growth of budding yeast (%) TM182-HIK1 Glu-Ura-Leu medium ([1]; final concentration 0.2 ppm): 9% | Degree of growth of budding yeast (%) AH22 Glu medium (AH22; final concentration 0.2 ppm): 91%

CC(C)NC(=O)N1CC(=O)N(c2cc(Cl)cc(Cl)c2)C1=O [Compound (2), Iprodione]
Degree of growth of budding yeast AH22 Glu medium (AH22 strain; final concentration 6 ppm): 91% | Degree of growth of budding yeast (%) TM182-HIK1 Gal-Ura-Leu medium ([1]; final concentration 2.0 ppm): 94% | Degree of growth of budding yeast (%) TM182-HIK1 Glu-Ura-Leu medium ([1]; final concentration 2.0 ppm): 79% | Degree of growth of budding yeast (%) AH22 Glu medium (AH22; final concentration 6 ppm): 91%
